Measurements: ChEMBL document CHEMBL1201862, “PubChem BioAssay data set” (2004)
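Cells were grown in 96-well plates and exposed to each compound for 48 hours at five concentrations; endpoints were interpolated linearly between bracketing concentrations, or set to the highest concentration if not reached. The concentration for 50% growth inhibition is given as GI50.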 Activity calls are given as the source filed them. No stated cut-off is given here; in the data, active = GI50 up to about 1.1 µM and inactive = higher.

Legend:
Experiment in all cases: NCI-60 cell line screen, 48 h
[1] = test system: NCI-H522
[2] = test system: MOLT-4
[3] = test system: UACC-257
[4] = test system: HL-60
[5] = test system: SNB-75
[6] = test system: SNB-19
[7] = test system: ACHN
[8] = test system: DU-145
[9] = test system: A549
[10] = test system: HCT-15
[11] = test system: HCC 2998
[12] = test system: COLO 205
[13] = test system: A498
[14] = test system: Malme-3M
[15] = test system: SR
[16] = test system: BT-549
[17] = test system: M14
[18] = test system: U-251
[19] = test system: OVCAR-4
[20] = test system: OVCAR-8

| Compound | GI50 [1] | GI50 [2] | GI50 [3] | GI50 [4] | GI50 [5] | GI50 [6] | GI50 [7] | GI50 [8] | GI50 [9] | GI50 [10] | GI50 [11] | GI50 [12] | GI50 [13] | GI50 [14] | GI50 [15] | GI50 [16] | GI50 [17] | GI50 [18] | GI50 [19] | GI50 [20] |
| --- | --- | --- | --- | --- | --- | --- | --- | --- | --- | --- | --- | --- | --- | --- | --- | --- | --- | --- | --- | --- |
| O=C(NNC(=S)Nc1ccc(Cl)cc1)C12CC3CC(CC(C3)C1)C2 | 3.58 µM (inactive) | 1.98 µM (inactive) | 6.15 µM (inactive) | 1.68 µM (inactive) | 15.6 µM (inactive) | 5.15 µM (inactive) | 4.19 µM (inactive) | 11.6 µM (inactive) | 3.84 µM (inactive) | 3.18 µM | 7.1 µM (inactive) | 3.32 µM (inactive) | 4.82 µM (inactive) | 7.98 µM (inactive) | 1.04 µM (active) | 11.6 µM (inactive) | 7.74 µM (inactive) | 3.6 µM (inactive) | 4.92 µM (inactive) | 3.52 µM (inactive) |
| CCCCC[C@H](O)[C@H](C)C=C1SCCCS1 | > 100 µM (inactive) | > 100 µM (inactive) | > 100 µM (inactive) | > 100 µM (inactive) | > 100 µM (inactive) | > 100 µM (inactive) | > 100 µM (inactive) | > 100 µM (inactive) | > 100 µM (inactive) | > 100 µM | > 100 µM (inactive) | > 100 µM (inactive) | > 100 µM (inactive) | > 100 µM (inactive) | > 100 µM (inactive) | > 100 µM (inactive) | > 100 µM (inactive) | > 100 µM (inactive) | > 100 µM (inactive) | > 100 µM (inactive) |
| CN(Cc1cnc2nc(N)nc(N)c2n1)c1ccc(C(=O)NCCCC(=O)O)cc1 | 16.2 µM (inactive) | 6.53 µM (inactive) | 98.9 µM (inactive) | > 100 µM (inactive) | > 62.7 µM (inactive) | > 63.1 µM (inactive) | 6.78 µM (inactive) | 8.49 µM (inactive) | 5.83 µM (inactive) | 6.01 µM | > 100 µM (inactive) | > 100 µM (inactive) | > 100 µM (inactive) | 95.9 µM (inactive) | 4.99 µM (inactive) | > 65 µM (inactive) | 7.55 µM (inactive) | 77.3 µM (inactive) | > 100 µM (inactive) | 7.55 µM (inactive) |
| Nc1ncc(N)c(NCC2(CO)CC(CCc3ccccc3)C2)n1 (stereo not given) | 0.718 µM (active) | 0.393 µM (active) | 8.85 µM (inactive) | 0.12 µM (active) | 12.6 µM (inactive) | 11.1 µM (inactive) | 12.1 µM (inactive) | 11.2 µM (inactive) | 9.73 µM (inactive) | 13.9 µM | 11.3 µM (inactive) | 3.71 µM (inactive) | 13.5 µM (inactive) | 11 µM (inactive) | 1.08 µM (active) | 9.75 µM (inactive) | 11.4 µM (inactive) | 6.58 µM (inactive) | 4.02 µM (inactive) | 10.5 µM (inactive) |
| COCOc1ccc(C(=O)C(C)c2ccc(OCOC)cc2OCOC)c(O)c1 (stereo not given) | 41.5 µM (inactive) | 42.6 µM (inactive) | 56.4 µM (inactive) | 30.9 µM (inactive) | 33.5 µM (inactive) | > 100 µM (inactive) | > 100 µM (inactive) | > 100 µM (inactive) | 97.3 µM (inactive) | 78.9 µM | > 100 µM (inactive) | > 100 µM (inactive) | > 100 µM (inactive) | > 100 µM (inactive) | 40.7 µM (inactive) | 60.5 µM (inactive) | > 100 µM (inactive) | > 100 µM (inactive) | > 100 µM (inactive) | > 100 µM (inactive) |
| CN(C)CCNC(=O)c1ccc2nc3c(nc2c1)C(=O)c1ccccc1-3 | 30.9 µM (inactive) | 12.9 µM (inactive) | 76.6 µM (inactive) | 19.1 µM (inactive) | 30.5 µM (inactive) | 77.3 µM (inactive) | 47.1 µM (inactive) | > 100 µM (inactive) | > 100 µM (inactive) | 31.4 µM | 86.9 µM (inactive) | 34.6 µM (inactive) | > 100 µM (inactive) | 25.2 µM (inactive) | 18.1 µM (inactive) | 21.7 µM (inactive) | > 100 µM (inactive) | 24.2 µM (inactive) | 32.8 µM (inactive) | 36.5 µM (inactive) |
| O=[N+]([O-])/C(Cl)=C/C(=C1/Nc2ccccc2O1)[N+](=O)[O-] | 13.5 µM (inactive) | 19.8 µM (inactive) | 5.79 µM (inactive) | 11.6 µM (inactive) | 14.1 µM (inactive) | 17.4 µM (inactive) | 18.1 µM (inactive) | 19.2 µM (inactive) | 34.8 µM (inactive) | 16.6 µM | 14.6 µM (inactive) | 21.2 µM (inactive) | 19 µM (inactive) | 14.3 µM (inactive) | 8.71 µM (inactive) | 16.3 µM (inactive) | 19.8 µM (inactive) | 12.8 µM (inactive) | 29 µM (inactive) | 17.9 µM (inactive) |
| CCCc1ccc(OCC(=O)N/N=C/c2c(-c3ccccc3)[nH]c3ccccc23)cc1 | 14.6 µM (inactive) | 5.01 µM (inactive) | 15.4 µM (inactive) | 3.96 µM (inactive) | 19.2 µM (inactive) | 35.8 µM (inactive) | 13.1 µM (inactive) | 21.5 µM (inactive) | 8.17 µM (inactive) | 4.99 µM | 4.04 µM (inactive) | 3.43 µM (inactive) | 14.4 µM (inactive) | 7.85 µM (inactive) | 3.85 µM (inactive) | 13.8 µM (inactive) | 11.5 µM (inactive) | 6.19 µM (inactive) | 8.32 µM (inactive) | 9.08 µM (inactive) |
| COc1ccc(-c2nnc3n(Cc4ccccc4)c4ccccc4n3c2=O)cc1 | 17.3 µM (inactive) | > 100 µM (inactive) | 37.4 µM (inactive) | > 100 µM (inactive) | 11.9 µM (inactive) | 23.2 µM (inactive) | 15.2 µM (inactive) | 59.4 µM (inactive) | 45 µM (inactive) | > 100 µM | > 100 µM (inactive) | > 100 µM (inactive) | 22.7 µM (inactive) | 51.9 µM (inactive) | > 100 µM (inactive) | > 100 µM (inactive) | 77.6 µM (inactive) | 19.9 µM (inactive) | 6.01 µM (inactive) | 30.9 µM (inactive) |
| CC(=O)[C@H]1[C@H](O)C[C@@]2(C)[C@@H]3CCc4cc(O)c(OC5OC(CO)C(O)C(O)C5O)cc4C3(C)C(=O)C[C@]12C (stereo not given in full) | > 100 µM (inactive) | > 100 µM (inactive) | > 100 µM (inactive) | > 100 µM (inactive) | > 100 µM (inactive) | > 100 µM (inactive) | > 100 µM (inactive) | > 100 µM (inactive) | > 100 µM (inactive) | > 100 µM | > 100 µM (inactive) | > 100 µM (inactive) | > 100 µM (inactive) | > 100 µM (inactive) | > 100 µM (inactive) | > 100 µM (inactive) | > 100 µM (inactive) | > 100 µM (inactive) | > 100 µM (inactive) | > 100 µM (inactive) |
